According to patent US20080032418A1, “Cell Free Assay Systems For Identifying A Substance Of Interest” (priority 2003, published 2008):

How the values were obtained:
[1] = system: any of the receptor molecules described in example 1; conditions: 1.1 μM receptor, 2.5 μM compound 1, overnight at 4° C., Superose 6 gel filtration, excitation 485 nm, emission 535 nm
Experimental: This example describes the chelation of the compound of example 4 to any of the receptor molecules described in example 1 and purification of the receptor-perylene complexes by gel filtration chromatography.
The receptor was affinity purified, following standard methods, and 1.1 μM of the molecule was combined with 2.5 μM of compound 1, in a total volume of 0.5 ml. The materials were incubated on a rocking platform, overnight, at 4° C. The mixture was then loaded onto a 20 ml column of Superose 6 Prep gel filtration media, and washed with running buffer (20 mM Tris, pH 7.4, 150 mM NaCl, 0.05% maltoside/0.01% CHS), to remove any unbound perylene. A total of 60 separate, 0.5 ml fractions were collected. A portion of each fraction was loaded into 60 wells of a 96 well plate, and fluorescence was measured at an excitation of 485 nm, and emission of 535 nm. Since the fluorescence quantum yield of perylene bound to receptor differs from that of unbound perylene, fluorescence was also measured after dissociating receptor-perylene complexes by adding imidazole to a final concentration of 0.5M to each of the fractions. A portion of each column fraction was loaded onto denaturing polyacrylamide gel, separated by electrophoreses, transferred to PVDF membranes, and receptor protein containing fractions were identified, using anti-MBP antibodies.

[2] = target: T1, serotonin receptor 5HT2C with a C-terminal His tag (Rattus norvegicus, UniProt P08909); assay: immunoprecipitation binding assay (anti-MBP, protein A beads, imidazole elution, fluorescence); conditions: receptor 0.2 μM, perylene 0.4 μM, overnight at 4° C.; FIGS. 5-7
T1 construct: made in house; host or cells: bacteria (E. coli is named as the preferred host for the MBP system)
T1 sequence (P08909 with tags, fused parts or gaps): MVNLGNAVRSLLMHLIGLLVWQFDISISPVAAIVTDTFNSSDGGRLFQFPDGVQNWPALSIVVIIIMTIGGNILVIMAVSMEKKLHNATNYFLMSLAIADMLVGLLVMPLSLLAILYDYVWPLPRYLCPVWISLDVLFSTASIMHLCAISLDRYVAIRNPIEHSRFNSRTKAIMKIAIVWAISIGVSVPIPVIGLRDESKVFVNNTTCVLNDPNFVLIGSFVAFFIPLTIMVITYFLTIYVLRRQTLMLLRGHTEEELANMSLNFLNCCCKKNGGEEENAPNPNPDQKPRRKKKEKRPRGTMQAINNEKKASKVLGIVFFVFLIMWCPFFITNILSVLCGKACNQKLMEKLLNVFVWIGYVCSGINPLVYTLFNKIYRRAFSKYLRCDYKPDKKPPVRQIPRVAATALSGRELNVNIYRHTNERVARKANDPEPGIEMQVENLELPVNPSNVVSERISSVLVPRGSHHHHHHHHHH
Experimental: In these experiments, the affinity purified receptor (0.2 μM), and either compound 1, or control glycine-perylene (0.4 μM), were combined, in a total volume of 0.1 ml, and incubated on a rocking platform overnight, at 4° C. Further controls were provided, by taking samples of the two perylene molecules and treating them in the absence of protein.
All washes were retained for fluorescence measurements.
Perylene molecules were eluted from the bead bound proteins using 0.5M imidazole. Fluorescence of all samples and washes was measured, using a spectrofluorometer, excitation at 480 nm, and emission scan at 500-650 nm. Peak fluorescence was detected at 533-535 nm.

CCCCCCC(CCCCCC)N1C(=O)c2ccc3c4ccc5c6c(ccc(c7ccc(c2c37)C1=O)c64)C(=O)N(CCCCC(C(=O)[O-])N(CC(=O)[O-])CC(=O)O)C5=O.[Ni+2] (centres unmarked) [compound 1, N-(1-hexylheptyl)-N′-(nickel (II)-5-(1-carboxyl-1-(N-dicarboxylmethyl)pentyl))perylene-3,4,9,10-tetracarboxylic-diimide]
portion of the total perylene bound to receptor protein [1]: roughly one-third
binding to the receptor (fluorescence following overnight elution with 0.5M imidazole) [2]: bound to the receptor and required elution
